Assay: in vitro
Conditions: human, hela cells, % viability

In the case of `Cc1nc2c(c(=O)[nH]1)CN(CC1CCCCC1)CC2` [CBK283947], the viability at 28.5 h, 10 µM is reported as 86.7%.
For `CCCOC(=O)N(O)c1ccc(Cl)c(Cl)c1` [CBK288400], the viability at 28.5 h, 10 µM was 94.4%.
For `CN1CCCN(c2nc(-c3cccs3)cn3ccnc23)CC1` [CBK066652], the viability at 28.5 h, 10 µM was 89.5%.
With `Clc1ccc(SCCOCCN2CCCCC2)cc1` [CBK265108G] the viability at 28.5 h, 10 µM was 87.3%.
`COc1cc(-c2cn3ccnc3c(N(C)CCN(C)C)n2)cc(OC)c1OC` [CBK066196] gave a viability at 28.5 h, 10 µM of 100%.
`COc1cccc(CN2CCN(C(=O)c3cc(C)[nH]c3C)[C@@H](C)C2)c1` [CBK284255] showed a viability at 28.5 h, 10 µM of 99.1%.
Compound `Cc1onc(-c2c(Cl)cccc2Cl)c1C(=O)N(C)C` [CBK160437] has a viability at 28.5 h, 10 µM of 97%.
With `N=C1OC2CSCC2N1C(=O)Cc1c(F)cccc1Cl` (centres unmarked) [CBK284517] the viability at 28.5 h, 10 µM was 84.9%.
With `NCCCNC(=O)c1ccc(/C=N/O)nc1` [CBK264524] the viability at 28.5 h, 10 µM was 110%.
Work on `CC(=O)N1C[C@@H]2C[C@H](C1)c1ccc(NC(=O)c3ccc(C#N)cc3)c(=O)n1C2` [CBK289202] yielded a viability at 28.5 h, 10 µM of 90.6%.
`CCOC(=O)N1CCC(NS(=O)(=O)c2c(C)noc2C)CC1` [CBK045465] showed a viability at 28.5 h, 10 µM of 102%.
Compound `Cc1nn(-c2ccccc2)c2[nH]c(=O)c(CNC(C)(C)C)cc12` [CBK282921] has a viability at 28.5 h, 10 µM of 101%.
With `CN(C1CCCCC1)C1CCN(CCc2ccccc2)CC1` [CBK261918] the viability at 28.5 h, 10 µM was 97.5%.
`CNS(=O)(=O)c1ccc(C)c(NC(C)=O)c1C` [CBK034426] gave a viability at 28.5 h, 10 µM of 88.5%.
`COc1cncc(-c2ccc(N3CCN(c4ccccc4C#N)CC3)nc2)c1` [CBK037738] gave a viability at 28.5 h, 10 µM of 107%.
For `CC1CC(=O)Nc2ccccc2N1C(=O)Cn1c(=O)cnc2ccccc21` (centres unmarked) [CBK297116], the viability at 28.5 h, 10 µM was 95%.
Work on `CCCOc1ccc(OC(=O)COc2ccccc2)cc1` [CBK160853] yielded a viability at 28.5 h, 10 µM of 93.3%.
In the case of `Cc1ccc(-c2nnc(CNC(=O)c3ccc(F)c(F)c3)o2)s1` [CBK284647], the viability at 28.5 h, 10 µM is reported as 90.5%.
Work on `CC1CCc2nn(CCNC(=O)Cc3ccccc3F)c(=O)cc2C1` (centres unmarked) [CBK284482] yielded a viability at 28.5 h, 10 µM of 97.2%.
`O=C1CC2(CCN(C(=O)C3CCCCC3)CC2)Oc2ccc(F)cc21` [CBK282863] gave a viability at 28.5 h, 10 µM of 74.6%.
`Cc1nn(C)c(N2CCNCC2)c1NC(=O)c1cccs1` [CBK050303T] gave a viability at 28.5 h, 10 µM of 91.9%.
`COc1cc(CNC(=O)c2cnoc2-c2ccc(Br)cc2)cc(OC)c1OC` [CBK154893] gave a viability at 28.5 h, 10 µM of 110%.
With `CC1CCCCN1C(=O)Cn1ncn2c(cc3ccsc32)c1=O` (centres unmarked) [CBK284201] the viability at 28.5 h, 10 µM was 92.1%.
In the case of `COc1cccc(C(=O)Nc2nc(-c3ccccc3)cs2)c1OC` [CBK287697], the viability at 28.5 h, 10 µM is reported as 104%.
In the case of `Clc1ccc(C2(N3CCC(N4CCOCC4)CC3)CC2)cc1` [CBK282722], the viability at 28.5 h, 10 µM is reported as 90.8%.
With `CC(=O)N1c2ccccc2N(C(C)=O)C1c1ccc(C2N(C(C)=O)c3ccccc3N2C(C)=O)[nH]1` [CBK007216] the viability at 28.5 h, 10 µM was 110%.
`COc1ccc(OCCNC(=O)c2ccc(-c3ccc(C(C)=O)s3)nc2N(C)C(C)=O)cc1` [CBK076576] showed a viability at 28.5 h, 10 µM of 95.5%.
With `O=C(Cc1ccc(F)cc1)N1C2CCC1CC(O)(c1ccco1)C2` (centres unmarked) [CBK284033] the viability at 28.5 h, 10 µM was 86.4%.
In the case of `O=C1CC(c2ccccc2)CC(NCc2ccccc2)=C1C(=S)Nc1ccccc1` (centres unmarked) [CBK264491], the viability at 28.5 h, 10 µM is reported as 104%.
Compound `OC(Cn1cnc(-c2ccccc2)c1-c1ccccc1)Cn1c2ccccc2c2ccccc21` (centres unmarked) [CBK261416] has a viability at 28.5 h, 10 µM of 78.2%.
For `CCn1c(CC2CCN(c3ncc(C#N)c(N)n3)CC2)nn(C)c1=O` [CBK306788], the viability at 28.5 h, 10 µM was 93.3%.
For `CC[C@H](Cn1nc(-c2cccs2)ccc1=O)NC(=O)C(C)C` [CBK284296], the viability at 28.5 h, 10 µM was 93.7%.
Work on `CC1CCN(S(=O)(=O)c2cccs2)CC1` [CBK102093] yielded a viability at 28.5 h, 10 µM of 118%.
In the case of `O=C(Nc1ccc(-n2cc(Cl)cn2)cc1)c1ccncc1` [CBK270249], the viability at 28.5 h, 10 µM is reported as 88.2%.
In the case of `Cc1cc(C)n(CCC(=O)NCC(c2ccccn2)N2CCOCC2)n1` (centres unmarked) [CBK307396], the viability at 28.5 h, 10 µM is reported as 105%.
Compound `Cc1cc(OC(F)(F)F)ccc1NS(=O)(=O)c1ccc(-c2ccon2)s1` [CBK062361] has a viability at 28.5 h, 10 µM of 86.7%.
In the case of `COc1ccc(/N=C2\NC(=O)/C(=C\C=C\c3ccccc3)S2)cc1` [CBK263417], the viability at 28.5 h, 10 µM is reported as 94.2%.
With `Cc1cc2cc(C(=O)NCC3(N(C)C)CCN(C)CC3)ccc2o1` [CBK282623] the viability at 28.5 h, 10 µM was 90.2%.
`CCNC(=O)N1CC2(CCN(Cc3nc4ccccc4[nH]3)CC2)c2ccccc21` [CBK126693] showed a viability at 28.5 h, 10 µM of 98%.
`S=C(Nc1cccnc1)N[C@H]1CC[C@@]2(c3cccnc3)CCN(Cc3ccccc3)[C@H]2C1` [CBK028450] showed a viability at 28.5 h, 10 µM of 94.8%.
`COC(=O)c1sccc1N1C(=O)CSCC1=O` [CBK021934] gave a viability at 28.5 h, 10 µM of 103%.
For `O=C(Nc1ccccc1C(=O)Nc1ccccc1C(=O)O)c1ccccc1` [CBK261551], the viability at 28.5 h, 10 µM was 91.1%.
`CC(C)C(=O)Nc1sc2c(c1C(=O)NCc1cccnc1)CCC2` [CBK306144] showed a viability at 28.5 h, 10 µM of 80.3%.
In the case of `Cc1noc(C)c1C(=O)NC1(c2ccc(F)cc2)CCCC1` [CBK284013], the viability at 28.5 h, 10 µM is reported as 93.4%.
